Laboratory results as given in the NIST ThermoML archive (doi:10.1021/je0601513).

Legend:
[1] = xn = mol fraction of the nth substance listed; details: 101 kPa, Liquid; for viscosity: Capillary tube (Ostwald / Ubbelohde) method
[2] = refractive index (Na D-line) (dimensionless); xn = mol fraction of the nth substance listed; details: 288.15 K, 101 kPa, Liquid, Standard Abbe refractometry

C[S+](C)[O-] [dimethyl sulfoxide] + CCCO
[1]
Details	mass density [kg/m3]	viscosity [mPa·s]
288.15 K, x1 = 0.0533	822.73	2.251
288.15 K, x1 = 0.0938	834.33	2.1
288.15 K, x1 = 0.1708	856.51	1.937
288.15 K, x1 = 0.2592	882.15	1.835
288.15 K, x1 = 0.346	907.54	1.81
288.15 K, x1 = 0.4294	932.12	1.819
288.15 K, x1 = 0.5115	956.49	1.864
288.15 K, x1 = 0.5981	982.38	1.927
288.15 K, x1 = 0.6853	1008.66	1.999
288.15 K, x1 = 0.7596	1031.23	2.086
288.15 K, x1 = 0.8438	1057.01	2.206
288.15 K, x1 = 0.9368	1085.71	2.348
298.15 K, x1 = 0.0554	815.18	1.799
298.15 K, x1 = 0.1366	838.3	1.635
298.15 K, x1 = 0.22	862.21	1.522
298.15 K, x1 = 0.2987	884.95	1.486
298.15 K, x1 = 0.4289	922.94	1.487
298.15 K, x1 = 0.5022	944.55	1.517
298.15 K, x1 = 0.5992	973.37	1.575
298.15 K, x1 = 0.677	996.69	1.633
298.15 K, x1 = 0.7656	1023.43	1.71
298.15 K, x1 = 0.8358	1044.81	1.786
298.15 K, x1 = 0.9181	1070.04	1.881
298.15 K, x1 = 0.9646	1084.38	1.942
308.15 K, x1 = 0.0537	806.44	1.439
308.15 K, x1 = 0.1336	828.96	1.319
308.15 K, x1 = 0.2147	852.03	1.264
308.15 K, x1 = 0.2987	876.11	1.237
308.15 K, x1 = 0.3876	901.81	1.243
308.15 K, x1 = 0.4707	926.08	1.265
308.15 K, x1 = 0.5552	950.93	1.296
308.15 K, x1 = 0.6418	976.65	1.343
308.15 K, x1 = 0.7191	999.78	1.401
308.15 K, x1 = 0.7998	1024.11	1.474
308.15 K, x1 = 0.877	1047.58	1.545
308.15 K, x1 = 0.965	1074.53	1.621

[2]
Details	refractive index
x1 = 0.0533	1.3942
x1 = 0.0938	1.3979
x1 = 0.1708	1.405
x1 = 0.2592	1.4132
x1 = 0.346	1.4212
x1 = 0.4294	1.429
x1 = 0.5115	1.4367
